# Experimental data reported in US20230241142A1, “USE OF A POLAR EXTRACT OF SKELETONEMA IN PHOTODYNAMIC THERAPY” (IFREMER, priority 2020, published 2023).
# Key:
# Format in all cases: cell-based
# [1] = tested on: normal human epidermal keratinocytes (NHEK); assay: cell viability (WST-8) of Poly(I:C)-stimulated keratinocytes; conditions: NHEK stimulated with Poly(I:C) 1 µg/mL + Bafilomycin 100 nM
# Description: The anti-inflammatory properties of S. marinoï polar algae extract were evaluated on normal human epidermal keratinocytes (NHEK)
# (§1) These NHEK human epidermal keratinocytes were seeded in K-SFM medium supplemented with 0.25 ng/mL of EGF (Epidermal Growth Factor), 25 µg/mL of pituitary extract and 25 µg/mL of Gentamycin in 96-well plates to then be incubated at 37° C. under an atmosphere containing 5% CO2. After at least one day of culturing, the NHEK cells are pre-incubated for 24 hours in the presence or absence of different concentrations of the S. marinoï polar extract. As a positive control of anti-inflammatory activity, NHEK cells were also pre-incubated in the presence of bafilomycin (100 nM). After this pre-incubation, the treatments were renewed and the NHEK cells are then incubated for 24 hours in the presence of poly (I:C) for inducing inflammation. A control condition without inflammation inducer (unstimulated control) was performed in parallel.
# [2] = tested on: normal human epidermal keratinocytes (NHEK); assay: anti-inflammatory effect: IL-6 secreted by Poly(I:C)-stimulated keratinocytes (ELISA); conditions: NHEK stimulated with Poly(I:C) 1 µg/mL + Bafilomycin 100 nM
# Description: as §1, with “The anti-inflammatory properties of S. marinoï polar algae extract were evaluated on normal human epidermal keratinocytes (NHEK) These” for “These”, “parallel. After incubation, the culture supernatant was collected to determine the level of keratinocyte inflammation by ELISA by measuring the amounts of IL-6 secreted.” for “parallel.”
# [3] = tested on: human sebocytes of the SEBO662AR line; assay: anti-lipogenic effect: total lipids (BODIPY probe) in stimulated sebocytes; conditions: cells stimulated with lipogenic mixture containing androgens + Cerulenin 10 µM
# Description: The effect of S. marinoï polar algae extract on the overproduction of lipids was studied on human sebocytes of the SEBO662AR line (BIOALTERNATIVES line) stimulated by lipogenic and androgenic factors.
# SEBO662AR human sebocytes were first cultured at 37° C. in the presence of 5% CO2 and antibiotics in a dedicated culture medium. After at least one day of culturing, lipogenesis is induced in the SEBO662AR cells by their incubation in the presence of lipogenic and androgenic factors. The cells are then incubated in the presence or in the absence of 3 distinct concentrations of the polar extract. As a positive control of lipogenesis inhibitory activity, the SEBO662AR cells are incubated in the presence of cerulenin. At the end of the incubation period, the total lipids are fluorescently labelled, and the inhibition of lipogenesis is determined for each condition.
SMILES,Cell viability (WST-8) [1],IL6 [2],Lipids (BODIPY® probe) Fluorescence intensity /Number of nuclei [3],Stimulation % [3]
"CO/C1=C\C(C)=C\[C@@H](C)[C@@H](O)[C@@H](C)C/C(C)=C/C=C/[C@H](OC)[C@@H]([C@@H](C)[C@@H](O)[C@H](C)[C@@]2(O)C[C@@H](O)[C@H](C)[C@@H](C(C)C)O2)OC1=O [Bafilomycin, bafilomycin]",100,13 pg/mL,,
"C/C=C/C/C=C/CCC(=O)[C@H]1O[C@H]1C(N)=O [Cerulenin, cerulenin]",,,188 853^∗∗,63%
